Results from patent US9884851B2, “Heterocycle-bisamide inhibitors of scavenger receptor BI” (THE BROAD INSTITUTE, INC., priority 2012, dated 2018).
Entries after “also recorded” stand apart in the source; their conditions may differ.

Key:
SR-BI = target: T1, SR-BI (Mus musculus, UniProt Q61009); assay: HDL binding assay (Alexa 488 HDL); type: cell-based, murine; set-up: expressed in transfected cells; host or cells: ldlA[mSR-BI], Chinese hamster ovary (CHO) cells lacking LDL receptor (Krieger Laboratory)
T1 sequence (Q61009 1-509): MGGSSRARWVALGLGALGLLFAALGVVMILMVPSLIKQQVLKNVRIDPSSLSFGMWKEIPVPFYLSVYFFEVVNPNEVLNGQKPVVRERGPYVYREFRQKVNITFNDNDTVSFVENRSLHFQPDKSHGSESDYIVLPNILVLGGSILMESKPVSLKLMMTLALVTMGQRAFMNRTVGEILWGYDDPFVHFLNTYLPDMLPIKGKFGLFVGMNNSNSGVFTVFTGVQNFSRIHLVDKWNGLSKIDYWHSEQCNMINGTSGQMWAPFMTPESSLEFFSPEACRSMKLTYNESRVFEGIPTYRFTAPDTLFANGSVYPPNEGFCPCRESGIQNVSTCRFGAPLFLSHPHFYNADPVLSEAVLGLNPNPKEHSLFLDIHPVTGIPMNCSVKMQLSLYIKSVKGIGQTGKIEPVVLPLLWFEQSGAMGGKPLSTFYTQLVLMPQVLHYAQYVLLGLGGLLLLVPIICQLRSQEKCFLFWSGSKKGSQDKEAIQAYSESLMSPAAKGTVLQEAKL
Description: HDL binding was assessed using Alexa Fluor 488-labeled HDL particles. For this assay, the Alexa 488 dye was directly covalently bound to apolipoprotein components of the HDL particle via primary amines; thus, no transfer of the fluorophore to cell membranes occurs. Instead, direct binding of the HDL particles to SR-BI can be measured. As a positive control, BLT-1, which is known to increase binding, was used at 1 μM. It is possible that a compound can reduce binding of HDL to the receptor, and this would lead to a decrease in signal. This assay is used to characterize the mechanism of action of a particular compound; therefore, any outcome in the assay is acceptable. Data were normalized against DMSO and the positive control (1 μM BLT-1) in Genedata Assay Analyzer.

[1] = test system: endocytosis of transferrin; assay: Transferrin endocytosis assay; type: cell-based, Chinese hamster; conditions: concentrations up to 35 μM
Text: Transferrin Endocytosis Assay (SA 3: AID No. 602134)
This assay measures the endocytosis of an independent ligand, transferrin, which is not taken up via SR-BI but by clathrin-mediated endocytosis; thus providing a measure of the selectivity of the inhibitors. Alexa-594-labeled transferrin is taken into the cell via endocytosis and localization of labeled transferrin can be quantitated in the various intracellular compartments. […] Inhibitors of interest should act selectively at SR-BI and should have no activity in this assay.
Cells were pre-treated with compound for 3 hours and then treated with the Alexa-594 transferrin reagent for 30 minutes (Catalog No. T-13343; Invitrogen) in serum-free media. Plates of cells were then placed onto ice, washed with ice cold PBS, and then fixed with 4% paraformaldehyde. In addition, the nuclei were stained with 300 nM 4′,6-diamidino-2-phenylindole (DAPI) (Catalog No. 21490; Invitrogen). The cells were imaged with the Molecular Devices IXM microscope. Translocation measurements were performed using MetaExpress software and normalized for cell number.

C[C@H](C(=O)NC1CCCC1)N(C(=O)Cn1nnc(-c2ccc3c(c2)OCO3)n1)C1CCCCC1 [ML279, (R)-2-(2-(5-(Benzo[d][1,3]dioxol-5-yl)-2H-tetrazol-2-yl)-N-cyclohexylacetamido)-N-cyclopentylpropanamide]
AC50 (SR-BI; Alexa Fluor 488-labeled HDL): 270 nM | effect on binding of HDL to SR-BI (in words) (SR-BI; Alexa-488 labeled HDL): increases binding of HDL to the receptor | endocytosis of transferrin (in words) [1]: does not inhibit endocytosis of transferrin; also recorded: not grossly perturbing cellular membrane trafficking pathways; also recorded: no effect on the endocytosis of transferrin | endocytosis of transferrin (in words) ([1]; listed as compound of Formula (II)): does not inhibit endocytosis of transferrin
